Reference: patent publication US20120095006A1, “TREATMENT OF PULMONARY HYPERTENSION” (Pfizer Inc., priority 1999, published 2012)

Experiments:
[1] = system: human patients having various causes of pulmonary hypertension; assay: Clinical study: continuous sildenafil infusion in patients with pulmonary hypertension, PVR and SVR determined; assay type: in vivo; details: infusion to plasma level 100, 300 and 500 ng/ml, FIG. 1
Description: A number of patients having various causes of pulmonary hypertension were selected. The patients were then assessed in order to establish baseline data, including haemodynamic parameters (by right heart catheterization), blood gas profile (via an arterial line and pulse oximetry). The patients were then tested with 40 ppm of nitric oxide (NO) by inhilation for 5 minutes to assess the reversibility of pulmonary hypertension. Haemodynamic parameters were reassessed within 5 minutes of NO and then further assessed 5-20 minutes later. When the pulmonary arterial pressure levels had returned to baseline (+−5%) inhalation haemodynamic parameters were assessed again and patients were continuously infused with sildenafil at rates to control the plasma level at 100, 300 and 500 nanogrammes per milliliter. A few patients received placebo instead of sildenafil in double-blind fashion. Haemodynamic parameters were recorded throughout infusion. From the data collected during the trial, the PVR and SVR were determined.

[2] = system: hypoxic pulmonary vasoconstriction in anaesthetized Beagle dogs; assay: Hypoxic pulmonary vasoconstriction in anaesthetised dogs, intravenous administration; assay type: in vivo, dog
Description: The anaesthetized dog is the model of choice in which to study the effect of drugs, owing to the similarity between canine and human haemodynamics, and additionally, to ensure cinsistency between pharmacological and toxicological species.
Beagle dogs of either sex were anaesthetized with intravenous sodium pentobarbitone (Sagatal [trademark], 30 to 45 mg/kg) and anesthesia maintained with an infusion of Sagatal (6 mg/kg/h) into the right femoral vein. The dogs were initially intubated via the mouth, and then via a tracheotomy, and artificially respired using an Ugo Basille dog respirator. […] Respiratory gases (inspired O2 and end tidal CO2) were monitored by a Normocap 200 (trademark) respiratory gas monitor (Datex Instrumentarium Corp.). The depth of anesthesia was assessed by carefully monitoring arterial blood pressure and heart rate. […] Pulmonary artery pressure (PAP) and pulmonary artery wedge pressure were recorded from this catheter. This catheter was also connected to a cardiac index computer (Gould Instruments) and cardiac output determined by thermodilution following rapid injection of 5 ml saline at room temperature. […] Lead II ECG was recorded from 2 stainless steel needles inserted subcutaneously in the right arm and left leg. […] All data from the primary signals (PAP, Arterial blood pressure (ABP) and ECG) was recorded on a Po-ne-mah (trademark) data acquisition system. […]

[3] = system: hypoxic pulmonary vasoconstriction in anaesthetized dogs; assay: Hypoxic pulmonary vasoconstriction in anaesthetised dogs, inhaled administration; assay type: in vivo, dog; details: inhaled (nebulised), lowest of doses 30, 80, 230 and 770, hypoxic challenge, FIG. 3
Description: This separate study was performed in analogous fashion to intravenous administration, except that doses were administered into the inspiratory limb of the respiratory circuit using a Penta-sonic Nebuliser (deVilbiss). Each inhaled dose consisted of a timed nebulisation of the solution at a respiration rate of 15 breaths/min finishing 5 min before an hypoxic challenge. Sildenafil and vehicle were administered to a maximum of four dogs per group (i.e. total of eight dogs). At the end of the first vehicle experiment an additional hypoxic challenge was done following administration of an inhaled dose of sildenafil. Doses were made up by dissolving sildenafil in vehicle [sodium acetate buffer (0.038 M)] to the required concentration. Four doses of 30, 80, 230 and 770 microgrammes/weight of dog in kilogrammes were administered.

[4] = system: corpus cavernosum of the penis; details: dog model; cited from earlier work

CCCc1nn(C)c2c(=O)[nH]c(-c3cc(S(=O)(=O)N4CCN(C)CC4)ccc3OCC)nc12 [sildenafil, 5-[2-ethoxy-5-(4-methylpiperazin-1-ylsulfonyl)phenyl]-1,6-dihydro-1-methyl-3-propylpyrazolo[4,3-d]pyrimidin-7-one]
effect on PVR [1]: significant reduction in PVR | effect on SVR compared with effect on PVR [1]: substantially lower than the effect on PVR | effect on SVR compared with effect on PVR ([2]; FIG. 2): significantly lower than on PVP | dose producing maximal effect on PVR (reversing hypoxic pulmonary vasoconstriction) ([2]; lowest of doses 1.5, 4.5, 15 and 45, hypoxic challenge): 1.5 microgrammes/kg | dose producing maximal effect on PVR [3]: 30 microgrammes/kg | calculated intravenous dose producing half-maximal potentiation (ED50) of nerve-induced pressure rises [4]: 12 microgrammes/kg
